The molecules below were run against T1, CDK2 (Homo sapiens, UniProt P24941) (assay: Phospho-RB measurement in OVCAR3 cells (HTRF phospho-RB S807/811)). Conditions: phosphorylation of RB protein at S807/811, HTRF, 24 h compound treatment, 0.3 to 10,000 nM, read-out: pRb (uM).
T1 construct: endogenous in cells; host or cells: OVCAR3 cells
Format: cell-based
In short: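 IC50 values come from four-parameter logistic fits of the DMSO-normalised 665/620 nm TR-FRET ratio for phospho-RB (S807/811). Antibody detection ran 4 h at room temperature.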

| SMILES | IC50 [µM] |
| --- | --- |
| O=S1(=O)CC2(CC(Nc3nccc(-c4sc(N5C6CCC5CN(CCC(F)(F)F)C6)nc4-c4cccc(NS(=O)(=O)c5c(F)cccc5F)c4F)n3)C2)C1 [Example 142, N-(3-(5-(2-((2,2-dioxido-2-thiaspiro[3.3]heptan-6-yl)amino)-pyrimidin-4-yl)-2-(3-(3,3,3-trifluoropropyl)-3,8-diazabicyclo-[3.2.1]octan-8-yl)thiazol-4-yl)-2-fluorophenyl)-2,6-difluorobenzenesulfonamide] | 0.32 |
| O=S1(=O)CC2(CC(Nc3nccc(-c4sc(N5C6CCC5CN(C5COC5)C6)nc4-c4cccc(NS(=O)(=O)c5c(F)cccc5F)c4F)n3)C2)C1 [Example 144, N-(3-(5-(2-((2,2-dioxido-2-thiaspiro[3.3]heptan-6-yl)amino)-pyrimidin-4-yl)-2-(3-(oxetan-3-yl)-3,8-diazabicyclo[3.2.1]octan-8-yl)thiazol-4-yl)-2-fluorophenyl)-2,6-difluorobenzenesulfonamide] | 0.24 |
| CS(=O)(=O)[C@H]1CC[C@@H](Nc2nccc(-c3sc(C45CC(Cl)(C4)C5)nc3-c3cccc(NS(=O)(=O)c4c(F)cccc4C(F)(F)F)c3F)n2)CC1 [Example 146, N-(3-(2-(3-chlorobicyclo[1.1.1]pentan-1-yl)-5-(2-(((1s,4s)-4-(methylsulfonyl)cyclohexyl)amino)pyrimidin-4-yl)thiazol-4-yl)-2-fluorophenyl)-2-fluoro-6-(trifluoromethyl)benzenesulfonamide] | 0.2 |
| O=S1(=O)CC2(CC(Nc3nccc(-c4sc(N5C6CCC5CN(C5CCC(F)(F)CC5)C6)nc4-c4cccc(NS(=O)(=O)c5c(F)cccc5F)c4F)n3)C2)C1 [Example 147, N-(3-(2-(3-(4,4-difluorocyclohexyl)-3,8-diazabicyclo[3.2.1]octan-8-yl)-5-(2-((2,2-dioxido-2-thiaspiro[3.3]heptan-6-yl)amino)pyrimidin-4-yl)thiazol-4-yl)-2-fluorophenyl)-2,6-difluorobenzenesulfonamide] | 0.91 |
| O=S1(=O)CC2(CC(Nc3nccc(-c4sc(N5C6CCC5CN(C5CCOCC5)C6)nc4-c4cccc(NS(=O)(=O)c5c(F)cccc5F)c4F)n3)C2)C1 [Example 148, N-(3-(5-(2-((2,2-dioxido-2-thiaspiro[3.3]heptan-6-yl)amino)pyrimidin-4-yl)-2-(3-(tetrahydro-2H-pyran-4-yl)-3,8-diazabicyclo[3.2.1]octan-8-yl)thiazol-4-yl)-2-fluorophenyl)-2,6-difluorobenzenesulfonamide] | 0.4 |
| O=S1(=O)CC2(CC(Nc3nccc(-c4sc(C56CC(Cl)(C5)C6)nc4-c4cccc(NS(=O)(=O)c5c(F)cccc5C(F)(F)F)c4F)n3)C2)C1 [Example 150, N-(3-(2-(3-chlorobicyclo[1.1.1]pentan-1-yl)-5-(2-((2,2-dioxido-2-thiaspiro[3.3]heptan-6-yl)amino)pyrimidin-4-yl)thiazol-4-yl)-2-fluorophenyl)-2-fluoro-6-(trifluoromethyl)benzenesulfonamide] | 0.17 |
| O=S1(=O)C[C@H]2C[C@H](Nc3nccc(-c4sc(C56CC(C5)C6)nc4-c4cccc(NS(=O)(=O)c5c(F)cccc5F)c4F)n3)C[C@H]2C1 [Example 152, N-(3-(2-(bicyclo[1.1.1]pentan-1-yl)-5-(2-(((3aR,5s,6aS)-2,2-dioxidohexahydro-1H-cyclopenta[c]thiophen-5-yl)amino)pyrimidin-4-yl)thiazol-4-yl)-2-fluorophenyl)-2,6-difluorobenzenesulfonamide] | 0.15 |

Stronger by IC50, values ahead:

| IC50 [µM] | SMILES |
| --- | --- |
| 0.095 | CC1C2(CC(Nc3nccc(-c4sc(C56CC(C5)C6)nc4-c4cccc(NS(=O)(=O)c5c(F)cccc5F)c4F)n3)C2)C(C)S1(=O)=O (centres unmarked) [Example 154, N-(3-(2-(bicyclo[1.1.1]pentan-1-yl)-5-(2-((1,3-dimethyl-2,2-dioxido-2-thiaspiro[3.3]heptan-6-yl)amino)pyrimidin-4-yl)thiazol-4-yl)-2-fluorophenyl)-2,6-difluorobenzenesulfonamide] |
| 0.09 | O=S1(=O)CC2(CC(Nc3nccc(-c4sc(N5C6CCC5CN(C5CC(F)(F)C5)C6)nc4-c4cccc(NS(=O)(=O)c5c(F)cccc5C(F)(F)F)c4F)n3)C2)C1 [Example 149, N-(3-(2-(3-(3,3-difluorocyclobutyl)-3,8-diazabicyclo[3.2.1]octan-8-yl)-5-(2-((2,2-dioxido-2-thiaspiro[3.3]heptan-6-yl)amino)pyrimidin-4-yl)thiazol-4-yl)-2-fluorophenyl)-2-fluoro-6-(trifluoromethyl)benzenesulfonamide] |
| 0.06 | CC1C2(CC(Nc3nccc(-c4sc(C56CC(C5)C6)nc4-c4cccc(NS(=O)(=O)c5c(F)cccc5F)c4F)n3)C2)CS1(=O)=O (centres unmarked) [Example 153, N-(3-(2-(bicyclo[1.1.1]pentan-1-yl)-5-(2-((1-methyl-2,2-dioxido-2-thiaspiro[3.3]heptan-6-yl)amino)pyrimidin-4-yl)thiazol-4-yl)-2-fluorophenyl)-2,6-difluorobenzenesulfonamide] |
| 0.051 | CC1(C#N)CC2CCC(C1)N2c1nc(-c2cccc(NS(=O)(=O)c3c(F)cccc3C(F)(F)F)c2F)c(-c2ccnc(NC3CC4(C3)CS(=O)(=O)C4)n2)s1 (centres unmarked) [Example 151, N-(3-(2-(3-cyano-3-methyl-8-azabicyclo[3.2.1]octan-8-yl)-5-(2-((2,2-dioxido-2-thiaspiro[3.3]heptan-6-yl)amino)pyrimidin-4-yl)thiazol-4-yl)-2-fluorophenyl)-2-fluoro-6-(trifluoromethyl)benzenesulfonamide] |
